Activity calls are given as the source filed them.
Columns and labels:
[1] = target: Matrix metalloproteinase-14 (Homo sapiens, UniProt P50281); experiment: Dose Response confirmation of uHTS hits for a small molecule inhibitors of MT1-MMP activation in a fluorescence assay set 1.; type: functional
Aminopeptidase N = target: T1, Aminopeptidase N (Plasmodium falciparum FcB1/Columbia, UniProt O96935); experiment: P. falciparum M1AAP inhibitors, biochemical, fluorogenic H-Leu-NHMec substrate, 1536-well (AID 1445); parameters: species or system Plasmodium falciparum 3D7, 3D7
T1 sequence (O96935 whole entry): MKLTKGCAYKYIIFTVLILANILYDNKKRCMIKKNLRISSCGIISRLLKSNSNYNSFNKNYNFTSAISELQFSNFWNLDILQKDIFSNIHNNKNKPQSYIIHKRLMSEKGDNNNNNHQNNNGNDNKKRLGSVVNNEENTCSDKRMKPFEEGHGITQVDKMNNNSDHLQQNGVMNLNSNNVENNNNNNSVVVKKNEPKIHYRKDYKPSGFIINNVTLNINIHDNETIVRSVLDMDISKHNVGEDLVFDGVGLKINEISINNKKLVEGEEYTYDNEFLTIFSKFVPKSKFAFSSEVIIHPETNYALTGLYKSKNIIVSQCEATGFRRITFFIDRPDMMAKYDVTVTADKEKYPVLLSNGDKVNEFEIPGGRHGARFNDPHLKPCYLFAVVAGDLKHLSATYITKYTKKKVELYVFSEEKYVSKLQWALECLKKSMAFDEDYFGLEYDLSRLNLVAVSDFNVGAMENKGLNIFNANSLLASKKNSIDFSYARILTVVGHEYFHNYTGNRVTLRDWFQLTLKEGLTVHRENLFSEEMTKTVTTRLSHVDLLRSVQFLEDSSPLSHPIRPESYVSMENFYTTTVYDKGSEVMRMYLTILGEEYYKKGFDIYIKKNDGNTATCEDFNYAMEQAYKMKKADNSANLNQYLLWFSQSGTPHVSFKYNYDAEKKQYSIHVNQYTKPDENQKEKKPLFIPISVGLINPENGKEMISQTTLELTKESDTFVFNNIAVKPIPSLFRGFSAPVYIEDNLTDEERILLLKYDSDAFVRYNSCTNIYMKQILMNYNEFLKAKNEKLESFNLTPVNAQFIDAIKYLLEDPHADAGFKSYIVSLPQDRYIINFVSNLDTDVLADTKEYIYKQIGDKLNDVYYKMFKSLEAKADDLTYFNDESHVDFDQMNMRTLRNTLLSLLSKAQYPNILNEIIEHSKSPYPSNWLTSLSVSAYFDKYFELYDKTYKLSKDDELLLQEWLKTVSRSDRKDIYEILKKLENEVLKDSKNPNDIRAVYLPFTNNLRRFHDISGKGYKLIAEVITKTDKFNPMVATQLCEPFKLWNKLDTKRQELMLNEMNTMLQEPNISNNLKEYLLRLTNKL

[2] = CRF-BP/CRF-R2 complex antagonists, dose response, cell-based, uHTS hits, 384-well (AID 651639); type: functional, Homo sapiens; settings: read-out: IC50_Mean
[3] = target: T2, Corticotropin-releasing factor receptor 2/Corticotropin-releasing factor-binding protein (Homo sapiens, UniProt P24387+Q13324); experiment: Dose Response confirmation of uHTS hits for small molecule antagonists of the CRF-binding protein and CRF-R2 receptor complex.; type: functional; settings: read-out: IC50_Mean
T2 sequence (Q13324 whole entry): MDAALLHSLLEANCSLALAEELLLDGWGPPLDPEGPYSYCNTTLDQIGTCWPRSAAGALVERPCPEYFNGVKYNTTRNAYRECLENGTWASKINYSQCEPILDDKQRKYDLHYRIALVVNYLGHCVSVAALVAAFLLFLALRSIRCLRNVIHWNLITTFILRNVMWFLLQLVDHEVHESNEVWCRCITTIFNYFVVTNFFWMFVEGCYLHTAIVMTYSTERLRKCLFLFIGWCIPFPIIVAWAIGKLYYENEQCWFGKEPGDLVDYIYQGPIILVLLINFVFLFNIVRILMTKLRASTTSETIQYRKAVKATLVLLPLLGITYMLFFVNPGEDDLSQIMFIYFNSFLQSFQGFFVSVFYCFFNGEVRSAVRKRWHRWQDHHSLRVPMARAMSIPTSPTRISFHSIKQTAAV
T2 sequence (P24387 whole entry): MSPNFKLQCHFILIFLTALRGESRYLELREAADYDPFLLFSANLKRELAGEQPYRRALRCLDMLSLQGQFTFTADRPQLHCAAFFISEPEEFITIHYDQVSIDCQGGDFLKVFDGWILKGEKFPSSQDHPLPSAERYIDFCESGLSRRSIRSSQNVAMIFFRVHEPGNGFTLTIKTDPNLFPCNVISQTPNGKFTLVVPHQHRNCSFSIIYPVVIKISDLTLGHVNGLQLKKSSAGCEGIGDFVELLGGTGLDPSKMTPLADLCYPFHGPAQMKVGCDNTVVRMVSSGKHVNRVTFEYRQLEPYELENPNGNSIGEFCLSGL

[4] = target: T2, Corticotropin-releasing factor receptor 2/Corticotropin-releasing factor-binding protein; experiment: activators of CRF receptor 2 with binding protein – uHTS hits, confirmation (AID 602473); type: functional; settings: read-out: EC50_Mean
[5] = cytotoxicity in HEK-293T cells, dose response, cytotoxicity control for TCR NF-kB inhibitor project, luminescence, T-cell screen hits (AID 489026); type: functional, cell-based;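 note: cells exposed to compound about 14 hours before the viability readout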
[6] = insulin promoter down-regulators in MIN6 cells, imaging, high-content screening, mouse beta cells (AID 1628); type: functional
INS1 = experiment: beta cell apoptosis inhibitors, cytokine rescue, dose response, luminescence, retest (AID 449756); type: functional, cell-based; settings: Rattus norvegicus;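 note: cell death triggered by IL-1 beta plus TNF-alpha plus IFN-gamma mixture; protective hits raise ATP signal compared with cytokine alone wells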
[7] = HepG2 cell cytotoxicity, dose response, cytotoxicity control for Shn3 inhibitor project, CellTiter-Glo, cherry-picked (AID 624134); type: functional, cell-based
Galanin receptor type 3 = Galanin receptor type 3 (Homo sapiens, UniProt O60755); experiment: Fluorescence-based cell-based primary high throughput dose response assay to identify antagonists of the Galanin Receptor 3 (GalR3).; type: functional
Galanin receptor type 3, sequence (O60755 whole entry): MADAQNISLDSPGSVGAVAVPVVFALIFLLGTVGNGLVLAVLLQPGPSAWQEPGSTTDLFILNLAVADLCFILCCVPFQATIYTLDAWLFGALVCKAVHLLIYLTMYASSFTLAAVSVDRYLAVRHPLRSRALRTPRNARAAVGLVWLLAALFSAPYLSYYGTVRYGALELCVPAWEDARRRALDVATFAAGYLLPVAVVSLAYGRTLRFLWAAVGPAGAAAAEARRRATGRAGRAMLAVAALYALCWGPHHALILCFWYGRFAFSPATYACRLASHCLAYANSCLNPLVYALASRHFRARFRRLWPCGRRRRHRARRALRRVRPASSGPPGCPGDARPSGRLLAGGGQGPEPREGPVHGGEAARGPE

cells = type: functional, cell-based; settings: HEK-CNG
[8] = Shn3 3'UTR reporter inhibitors, dose response, cell-based, Clone20 osteoblasts, firefly luciferase, cherry-picked (AID 624132); type: functional;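 note: firefly luciferase luminescence from reporter carrying the Shn3 3'UTR in osteoblasts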
[9] = control 3'UTR Renilla luciferase suppression, dose response, counter-screen for Shn3 inhibitor project, cell-based, Clone20-Shn3RL, cherry-picked (AID 624133); type: functional
[10] = cytotoxicity in MIN6 insulinoma cells, dose response, cytotoxicity control, cell-based, mouse insulinoma (AID 2122); type: functional;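 note: confirmatory high-throughput counterscreen run to flag cytotoxic compounds; mouse MIN-6 beta cells carrying an insulin promoter eGFP reporter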
[11] = target: T3, DNA repair protein RAD52 homolog (Homo sapiens, UniProt P43351); type: functional, biochemical
T3 sequence (P43351 whole entry): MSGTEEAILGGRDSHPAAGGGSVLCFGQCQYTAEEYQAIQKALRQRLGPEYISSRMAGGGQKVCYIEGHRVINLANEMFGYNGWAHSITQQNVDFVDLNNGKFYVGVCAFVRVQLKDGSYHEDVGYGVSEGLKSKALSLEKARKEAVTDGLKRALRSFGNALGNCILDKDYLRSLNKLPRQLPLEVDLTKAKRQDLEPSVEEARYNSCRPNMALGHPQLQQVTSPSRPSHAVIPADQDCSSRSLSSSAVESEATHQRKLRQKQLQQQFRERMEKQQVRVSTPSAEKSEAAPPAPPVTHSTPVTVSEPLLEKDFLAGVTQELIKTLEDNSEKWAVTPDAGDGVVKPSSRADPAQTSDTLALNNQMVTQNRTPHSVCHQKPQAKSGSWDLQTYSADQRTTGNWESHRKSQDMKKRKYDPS

[12] = HEK293T cytotoxicity, dose response, cytotoxicity control for miR-122 modulator project, cell-based, activator set, cherry-pick (AID 720690); type: functional;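 note: HEK293T human cells scored for general mammalian cytotoxicity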
[13] = HEK293T cytotoxicity, dose response, cytotoxicity control for miR-122 modulator project, cell-based, inhibitor set, cherry-pick, set 2 (AID 720697); type: functional
Paired box protein Pax-8 = Paired box protein Pax-8 (Homo sapiens, UniProt Q06710); experiment: inhibitors of PAX8-driven TPO luciferase reporter, dose response, RMG-I cells, cherry-pick (AID 687027); type: functional, cell-based;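 note: luciferase reporter driven by Pax8 target thyroperoxidase promoter measured by SteadyGlo luminescence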
Paired box protein Pax-8, sequence (Q06710 whole entry): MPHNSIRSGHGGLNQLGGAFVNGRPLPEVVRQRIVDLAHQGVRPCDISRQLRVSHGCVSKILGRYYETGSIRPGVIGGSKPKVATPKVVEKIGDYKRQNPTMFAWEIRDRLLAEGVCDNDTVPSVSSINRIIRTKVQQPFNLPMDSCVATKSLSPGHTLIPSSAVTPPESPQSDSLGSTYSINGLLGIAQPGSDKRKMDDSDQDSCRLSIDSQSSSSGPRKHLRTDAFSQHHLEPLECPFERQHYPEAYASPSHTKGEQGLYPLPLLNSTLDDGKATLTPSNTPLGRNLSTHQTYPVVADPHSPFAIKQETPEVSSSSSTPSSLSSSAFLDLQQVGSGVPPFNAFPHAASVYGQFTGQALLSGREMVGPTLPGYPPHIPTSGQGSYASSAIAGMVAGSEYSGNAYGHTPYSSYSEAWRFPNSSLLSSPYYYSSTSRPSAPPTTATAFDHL

[14] = cytotoxicity in COV434 cells, dose response, cytotoxicity control for PAX8 inhibitor project, cell-based, plate reader, dry powder, SA7 (AID 743145); type: functional
[15] = cytotoxicity dependent on PAX8, dose response, cell-based, plate reader, dry powder (AID 743049); type: functional
[16] = NIH:OVCAR-3 ovarian cancer cell cytotoxicity, dose response, PAX8 inhibitor project, plate reader, dry powder samples (AID 743044); type: functional, cell-based
[17] = cytotoxicity in OV-90 ovarian cancer cells, dose response, PAX8 inhibitor project, cell-based, plate reader, dry powder, SA8 (AID 743149); type: functional
[18] = PAX5 activity inhibitors, dose response, selectivity assay for PAX8 inhibitor project, cell-based, plate reader, dry powder samples (AID 743047); type: functional;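 note: HEK293 cells carrying a Pax5 driven CD19 promoter luciferase reporter; potency of inhibitors that lower reporter luminescence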

CNc1ccc(N=Nc2cc[n+]([O-])cc2C)cc1C
inactive: IC50 [1] > 80 µM

Cc1ccc(S(=O)(=O)NC2=NC(=O)/C(=C/c3ccccc3)S2)cc1
inactive: IC50 [2] > 20 µM | EC50 [4] > 53 µM
active: IC50 (Aminopeptidase N) 69.2 µM | IC50 [3] 18.4 µM

Cc1cc(C)nc(SCC(=O)Nc2ccnc3ccccc23)n1
active: IC50 [6] 0.695 µM | AC50 (INS1) 4.76 µM | IC50 (Galanin receptor type 3) 0.874 µM | AC50 [8] 0.462 µM | AC50 [9] < 0.26 µM | IC50 [10] 0.398 µM
inactive: IC50 [5] > 80 µM | AC50 [7] > 70 µM | EC50 (cells) > 29.9 µM

COc1ccc(-c2c(-c3ccccc3)c(C(=O)C(=O)NCCCN(C)C)n3ccc4cc(OC)c(OC)cc4c23)cc1OC
active: AC50 [11] 3.15 µM | AC50 [12] 17.2 µM | AC50 [13] 4.39 µM

CC(C)c1cc(C(=O)OCC(=O)N2CCN(C(=O)c3ccco3)CC2)c(O)c(C(C)C)c1
active: AC50 (Paired box protein Pax-8) 1.58 µM | AC50 [14] 13.7 µM | AC50 [15] 10.8 µM | AC50 [16] 49.9 µM | AC50 [17] 81.3 µM | AC50 [18] 45.8 µM

— ChEMBL document CHEMBL1201862, “PubChem BioAssay data set” (2004)
